Test results taken from publication PMC11062899, “De novo development of small cyclic peptides that are orally bioavailable” (Nature Chemical Biology, 2023).
“And” between values parts separate entries of the source, which are not always exact repeats. Equal entries are not always repeated. One block for each molecule: values may come before it.

Assays:
[1] = target: T1, activated protein C (APC) (Homo sapiens, UniProt P04070); assay: Target specificity profiling: activated protein C; format: biochemical; details: replicates R1-R3
T1 construct: purchased Molecular Innovations
T1 sequence (P04070 212-461 limits assumed): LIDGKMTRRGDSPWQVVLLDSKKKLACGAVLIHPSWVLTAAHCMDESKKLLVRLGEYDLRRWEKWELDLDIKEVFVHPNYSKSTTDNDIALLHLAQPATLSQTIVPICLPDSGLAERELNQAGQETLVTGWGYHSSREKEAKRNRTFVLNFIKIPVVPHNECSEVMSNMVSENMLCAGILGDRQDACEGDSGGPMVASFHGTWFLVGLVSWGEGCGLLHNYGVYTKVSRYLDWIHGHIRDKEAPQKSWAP
T1 sequence (P04070 43-197 partner limits assumed): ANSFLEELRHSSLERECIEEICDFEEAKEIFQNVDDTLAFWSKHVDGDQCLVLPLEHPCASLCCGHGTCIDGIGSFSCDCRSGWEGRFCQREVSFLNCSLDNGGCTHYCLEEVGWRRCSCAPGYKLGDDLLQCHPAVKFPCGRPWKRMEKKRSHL
Procedure: (§1) The protease specificity was assessed by testing the inhibition of a series of trypsin-like serine proteases using fluorogenic or chromogenic substrates. Peptide dilutions ranging from 40 μM to 40 nM were prepared for all proteases except thrombin (1 μM to 1 nM). […]. The following fluorogenic substrates were used at a final concentration of 50 μM: Z-Gly-Gly-Arg-AMC (Bachem) for thrombin and trypsin; Z-Phe-Arg-AMC (Bachem) for plasma kallikrein; Boc-Phe-Ser-Arg-AMC (Bachem) for factor XIa; and Boc-Gln-Gly-Arg-AMC (Bachem) for factor XIIa. […]. Reactions were performed in a volume of 150 μl in 96-well plates. A volume of 50 μl of twofold dilutions of macrocycle in assay buffer was pipetted into the wells of the plates. A volume of 50 μl of protease in assay buffer was added to each well and incubated for 15 min. A volume of 50 μl of substrate in assay buffer containing 3% DMSO was added. Fluorescence intensity was measured for 30 min using an Infinite M200 Pro plate reader (Tecan; excitation at 368 nm, emission at 467 nm), with one measurement every minute. For APC protease, absorbance was measured at 405 nm using the same plate reader for a period of 30 min with one reading every minute. Reactions were performed at 25 °C. Data were analyzed by Excel (version 2016).

factor XIIa = target: T2, factor XIIa (Homo sapiens, UniProt P00748); assay: Target specificity profiling: factor XIIa; format: biochemical; details: replicates R1-R3
T2 construct: 5.3 nM factor XIIa (Molecular Innovations); purchased Molecular Innovations
T2 sequence (P00748 373-615 limits assumed, other chains not shown): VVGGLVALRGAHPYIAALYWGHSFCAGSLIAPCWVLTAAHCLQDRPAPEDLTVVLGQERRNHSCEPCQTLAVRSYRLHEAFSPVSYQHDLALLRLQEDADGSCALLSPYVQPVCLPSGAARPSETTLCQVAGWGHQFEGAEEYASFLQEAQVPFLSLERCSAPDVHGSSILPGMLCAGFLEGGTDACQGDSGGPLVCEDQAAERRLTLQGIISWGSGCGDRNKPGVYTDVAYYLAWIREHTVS
Procedure: as §1

thrombin = target: T3, thrombin (Homo sapiens, UniProt P00734); assay: Target specificity profiling: thrombin; format: biochemical; details: replicates R1-R3
T3 construct: […]; purchased Molecular Innovations
Procedure: as §1

plasma kallikrein = target: T4, plasma kallikrein (Homo sapiens, UniProt P03952); assay: Target specificity profiling: plasma kallikrein; format: biochemical; details: replicates R1-R3
T4 construct: 0.25 nM plasma kallikrein (Innovative Research); purchased Innovative Research
T4 sequence (P03952 391-638 limits assumed): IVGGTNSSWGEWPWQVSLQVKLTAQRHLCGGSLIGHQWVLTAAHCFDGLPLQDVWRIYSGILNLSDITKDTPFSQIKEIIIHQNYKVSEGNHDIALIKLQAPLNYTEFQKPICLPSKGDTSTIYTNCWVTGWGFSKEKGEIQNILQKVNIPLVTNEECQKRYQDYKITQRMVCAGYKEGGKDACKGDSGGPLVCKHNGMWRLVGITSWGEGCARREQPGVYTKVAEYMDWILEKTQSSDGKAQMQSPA
T4 sequence (P03952 20-390 partner limits assumed): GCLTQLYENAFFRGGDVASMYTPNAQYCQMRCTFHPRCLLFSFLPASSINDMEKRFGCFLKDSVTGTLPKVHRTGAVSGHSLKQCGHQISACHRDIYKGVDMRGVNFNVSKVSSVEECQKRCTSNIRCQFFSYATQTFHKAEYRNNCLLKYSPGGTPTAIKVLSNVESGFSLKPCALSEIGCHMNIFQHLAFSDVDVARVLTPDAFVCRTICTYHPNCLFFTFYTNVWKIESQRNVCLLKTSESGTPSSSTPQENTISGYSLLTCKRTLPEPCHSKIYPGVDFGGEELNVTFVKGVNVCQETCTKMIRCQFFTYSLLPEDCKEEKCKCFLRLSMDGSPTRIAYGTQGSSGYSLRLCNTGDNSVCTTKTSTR
Procedure: as §1

factor XIa = target: T5, factor XIa (Homo sapiens, UniProt P03951); assay: Target specificity profiling: factor XIa; format: biochemical; details: replicates R1-R3
T5 construct: 1 nM factor XIa (Innovative Research); purchased Innovative Research
T5 sequence (P03951 388-625 limits assumed): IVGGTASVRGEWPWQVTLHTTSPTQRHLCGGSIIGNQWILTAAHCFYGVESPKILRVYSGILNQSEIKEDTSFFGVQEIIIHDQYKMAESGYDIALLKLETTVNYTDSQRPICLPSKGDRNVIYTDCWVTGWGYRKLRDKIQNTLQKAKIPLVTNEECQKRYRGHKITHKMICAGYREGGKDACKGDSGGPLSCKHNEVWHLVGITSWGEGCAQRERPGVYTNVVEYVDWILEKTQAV
T5 sequence (P03951 19-387 partner limits assumed): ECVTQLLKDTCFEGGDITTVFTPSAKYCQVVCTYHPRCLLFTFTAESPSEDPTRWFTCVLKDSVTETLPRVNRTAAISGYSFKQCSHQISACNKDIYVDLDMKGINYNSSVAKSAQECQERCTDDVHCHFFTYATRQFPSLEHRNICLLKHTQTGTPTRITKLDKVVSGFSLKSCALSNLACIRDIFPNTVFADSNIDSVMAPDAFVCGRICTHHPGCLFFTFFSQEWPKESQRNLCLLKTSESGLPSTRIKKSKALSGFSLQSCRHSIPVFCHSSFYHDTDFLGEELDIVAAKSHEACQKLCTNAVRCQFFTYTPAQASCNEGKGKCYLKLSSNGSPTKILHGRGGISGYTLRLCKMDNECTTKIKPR
Procedure: as §1

[2] = Measurement of in vivo gastrointestinal stability in rats; set-up: species or system rat; details: for Concentration in organ extract: rat n = 1, 30 min after p.o. 10 mg kg^−1
Procedure: Peptide 43 was dissolved in 10% Cremophor EL and 5% DMSO in water at a concentration of 1 mg ml^−1 and administrated by oral gavage to a rat at a dose of 10 mg kg^−1. The rat was killed 30 min after the administration using a CO2 chamber followed by cervical dislocation. Stomach, small intestine (duodenum/jejunum and ileum were collected separately) and large intestine were removed and immediately frozen in pre-cooled containers on dry ice. Organs and their respective content were collected separately to facilitate homogenization and sample processing. The organs were homogenized using a mortar and pestle on dry ice and liquid nitrogen to avoid thawing of the samples. Peptides were extracted by addition of 2 ml of extraction buffer containing 50 mM Tris-HCl (pH 8.0), 150 mM NaCl, 5 mM EDTA, 0.01% Triton-X, 1 mM PMSF and protease inhibitor cocktail (Sigma-Aldrich, P8340) per gram of organ or organ content weight and sonicating the resulting suspension for 5 min. Samples were centrifuged at 16,000g for 10 min, and 40 μl of the resulting supernatant was mixed with 120 μl of a cold acetonitrile:water (9:1) solution containing an internal standard (5 μg ml^−1). Samples were analyzed and quantified by LC–MS as described above.

Residual protease activity, APC ([1]; inhibitor 1.00E+04 nM): 101.7 and 94.1 and 93.6
Residual protease activity, APC ([1]; inhibitor 1.25E+03 nM): 93.2 and 97.3 and 95.1
Residual protease activity, APC ([1]; inhibitor 1.56E+02 nM): 95.1 and 104.3 and 101.7
Residual protease activity, APC ([1]; inhibitor 2.00E+04 nM): 94.9 and 98.4 and 96.8
Residual protease activity, APC ([1]; inhibitor 2.50E+03 nM): 94.9 and 96.5 and 96.6
Residual protease activity, APC ([1]; inhibitor 3.12E+02 nM): 95.1 and 90.6 and 94.4
Residual protease activity, APC ([1]; inhibitor 3.91E+01 nM): 96.3 and 96.7 and 99.0
Residual protease activity, APC ([1]; inhibitor 4.00E+04 nM): 95.7 and 97.0 and 95.5
Residual protease activity, APC ([1]; inhibitor 5.00E+03 nM): 98.3 and 99.0 and 99.1
Residual protease activity, APC ([1]; inhibitor 6.25E+02 nM): 100.4 and 91.2 and 89.1
Residual protease activity, APC ([1]; inhibitor 7.81E+01 nM): 108.2 and 108.3 and 107.3
Residual protease activity, Factor XIIa (factor XIIa; inhibitor 1.00E+04 nM): 96.5 and 104.4 and 105.7
Residual protease activity, Factor XIIa (factor XIIa; inhibitor 1.25E+03 nM): 99.3 and 104.0 and 102.2
Residual protease activity, Factor XIIa (factor XIIa; inhibitor 1.56E+02 nM): 96.6 and 95.7 and 104.9
Residual protease activity, Factor XIIa (factor XIIa; inhibitor 2.00E+04 nM): 93.0 and 104.6 and 101.1
Residual protease activity, Factor XIIa (factor XIIa; inhibitor 2.50E+03 nM): 101.4 and 100.3 and 106.4
Residual protease activity, Factor XIIa (factor XIIa; inhibitor 3.12E+02 nM): 98.7 and 101.4 and 105.7
Residual protease activity, Factor XIIa (factor XIIa; inhibitor 3.91E+01 nM): 100.9 and 93.5 and 95.2
Residual protease activity, Factor XIIa (factor XIIa; inhibitor 4.00E+04 nM): 94.7 and 100.5 and 101.1
Residual protease activity, Factor XIIa (factor XIIa; inhibitor 5.00E+03 nM): 96.4 and 102.9 and 108.8
Residual protease activity, Factor XIIa (factor XIIa; inhibitor 6.25E+02 nM): 97.3 and 115.8 and 103.1
Residual protease activity, Factor XIIa (factor XIIa; inhibitor 7.81E+01 nM): 96.1 and 102.4 and 80.0
Residual protease activity, Thrombin (human) (thrombin; inhibitor 1.00E+03 nM): 3.9 and 4.0 and 3.8
Residual protease activity, Thrombin (human) (thrombin; inhibitor 1.25E+02 nM): 27.0 and 25.5 (2×)
Residual protease activity, Thrombin (human) (thrombin; inhibitor 1.56E+01 nM): 75.5 and 73.3 and 73.1
Residual protease activity, Thrombin (human) (thrombin; inhibitor 1.95E+00 nM): 95.2 and 97.7 and 95.3
Residual protease activity, Thrombin (human) (thrombin; inhibitor 2.50E+02 nM): 15.1 and 14.2 and 14.6
Residual protease activity, Thrombin (human) (thrombin; inhibitor 3.12E+01 nM): 59.3 and 58.1 and 56.4
Residual protease activity, Thrombin (human) (thrombin; inhibitor 3.91E+00 nM): 91.5 and 93.3 and 91.3
Residual protease activity, Thrombin (human) (thrombin; inhibitor 5.00E+02 nM): 7.6 and 7.4 (2×)
Residual protease activity, Thrombin (human) (thrombin; inhibitor 6.25E+01 nM): 44.1 and 42.5 and 42.8
Residual protease activity, Thrombin (human) (thrombin; inhibitor 7.81E+00 nM): 89.2 and 86.5 and 77.1
Residual protease activity, Thrombin (human) (thrombin; inhibitor 9.77E-01 nM): 99.8 and 102.7 and 98.9
Residual protease activity, Plasma kallikrein (plasma kallikrein; inhibitor 1.00E+04 nM): 100.3 and 97.1 and 98.3
Residual protease activity, Plasma kallikrein (plasma kallikrein; inhibitor 1.25E+03 nM): 101.3 and 99.9 and 96.3
Residual protease activity, Plasma kallikrein (plasma kallikrein; inhibitor 1.56E+02 nM): 96.4 and 108.1 and 104.0
Residual protease activity, Plasma kallikrein (plasma kallikrein; inhibitor 2.00E+04 nM): 101.2 and 98.7 and 98.9
Residual protease activity, Plasma kallikrein (plasma kallikrein; inhibitor 2.50E+03 nM): 103.4 and 100.4 and 99.0
Residual protease activity, Plasma kallikrein (plasma kallikrein; inhibitor 3.12E+02 nM): 102.1 and 105.6 and 105.7
Residual protease activity, Plasma kallikrein (plasma kallikrein; inhibitor 3.91E+01 nM): 104.4 and 99.7 and 94.4
Residual protease activity, Plasma kallikrein (plasma kallikrein; inhibitor 4.00E+04 nM): 101.1 and 97.0 and 98.9
Residual protease activity, Plasma kallikrein (plasma kallikrein; inhibitor 5.00E+03 nM): 98.7 and 96.4 and 96.9
Residual protease activity, Plasma kallikrein (plasma kallikrein; inhibitor 6.25E+02 nM): 106.1 and 103.7 and 102.1
Residual protease activity, Plasma kallikrein (plasma kallikrein; inhibitor 7.81E+01 nM): 103.2 and 99.7 and 96.6
Residual protease activity, Factor Xia (factor XIa; inhibitor 1.00E+04 nM): 95.7 and 95.4 and 95.1
Residual protease activity, Factor Xia (factor XIa; inhibitor 1.25E+03 nM): 96.1 and 95.1 and 96.0
Residual protease activity, Factor Xia (factor XIa; inhibitor 1.56E+02 nM): 107.0 and 105.2 and 107.6
Residual protease activity, Factor Xia (factor XIa; inhibitor 2.00E+04 nM): 93.9 and 90.3 and 94.5
Residual protease activity, Factor Xia (factor XIa; inhibitor 2.50E+03 nM): 100.7 and 100.4 and 101.9
Residual protease activity, Factor Xia (factor XIa; inhibitor 3.12E+02 nM): 89.3 and 92.0 and 107.2
Residual protease activity, Factor Xia (factor XIa; inhibitor 3.91E+01 nM): 99.1 and 100.7 and 101.5
Residual protease activity, Factor Xia (factor XIa; inhibitor 4.00E+04 nM): 101.0 and 99.6 and 99.1
Residual protease activity, Factor Xia (factor XIa; inhibitor 5.00E+03 nM): 104.3 and 104.7 and 110.9
Residual protease activity, Factor Xia (factor XIa; inhibitor 6.25E+02 nM): 94.0 and 96.1 and 97.6
Residual protease activity, Factor Xia (factor XIa; inhibitor 7.81E+01 nM): 100.7 and 100.8 and 101.1
Structure (SMILES): O=C1C[C@H]2CCCN2C(=O)[C@H](Cc2ccccc2)NC(=O)[C@@H](NC(=O)c2ccc(Cl)cc2)CCC=CCCCCN1 (mixture of isomers) [peptide 46]

Concentration in organ extract ([2]; Large intestine - content): 656 nM
Concentration in organ extract ([2]; Large intestine): 500 nM
Concentration in organ extract ([2]; Lower small instestine - content): 2900 nM
Concentration in organ extract ([2]; Lower small instestine): 600 nM
Concentration in organ extract ([2]; Stomach - content): 87600 nM
Concentration in organ extract ([2]; Stomach): 31600 nM
Concentration in organ extract ([2]; Upper small instestine - content): 13100 nM
Concentration in organ extract ([2]; Upper small instestine): 2600 nM
Structure (SMILES): O=C1C[C@H]2CCCN2C(=O)[C@H](Cc2ccccc2)NC(=O)[C@@H](NC(=O)c2ccc(Cl)s2)CCC=CCCCCN1 [peptide 43]
in vivo gastrointestinal stability ([2]; rats, 10 mg kg^−1 p.o., 30 min, stomach, small and large intestine): large fraction of the peptide fully intact
